Measurements taken from PMC7735563, “5,5-Dialkylluciferins are thermal stable substrates for bioluminescence-based detection systems” (PLoS ONE, 2020).

system: T1, Ultra-Glo™ luciferase; test: luminescence, Michaelis-Menten; type: biochemical; details: 1 mM ATP, Bright-Glo buffer, 25 °C
T1 construct: gene Firefly luciferase; HisLink purified; starting enzyme also obtained from Promega
Text: luminescence, Michaelis-Menten on Ultra-Glo™ luciferase

Row | SMILES | Km
1 | O=C(O)C1N=C(c2nc3ccc(O)cc3s2)SC12CC2 (racemic) [III-b, 5-(6-Hydroxybenzo[d]thiazol-2-yl)-4-thia-6-azaspiro[2.4]hept-5-ene-7-carboxylic acid] | 1710 nM
2 | CC1(C)SC(c2nc3ccc(O)cc3s2)=NC1C(=O)O (racemic) [III-a, 2-(6-Hydroxybenzo[d]thiazol-2-yl)-5,5-dimethyl-4,5-dihydrothiazole-4-carboxylic acid] | 7470 nM
3 | O=C(O)[C@H]1CSC(c2nc3ccc(O)cc3s2)=N1 [LH2, D-luciferin] | 490 nM
